The values that follow come from PubChem BioAssay (NCI).

What all share (assay): growth of human tumour cells (NCI), 48 h
The test system of test [1] is HOP-92 NSCLC.
Test [2] has as its system MALME-3M melanoma.
Test [3] deals with UO-31 renal.
Test [4] has as its system NCI-H522 lung.
For test [5], the system named is NCI/ADR-RES ovarian.
Test [6] deals with SF-295 CNS.
The test system of test [7] is UACC-257 melanoma.
Test [8] deals with EKVX NSCLC.
In test [9] the test system is RXF 393 renal.
Test [10] has as its system A549 NSCLC.

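96-well plates; 48 h exposure; 5 concentrations. Endpoints by linear interpolation between flanking doses. Not reached: highest tested concentration assigned. Abbreviation: GI50, concentration required for 50% inhibition of growth. TGI: concentration producing complete growth inhibition.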 Where a SMILES comes first, the peptide text is derived from it. The star is where a group is joined. Palmitoyl = CCCCCCCCCCCCCCCC(=O)* Where only a bound is given, the exact number is not on record here.

With `CCCCCCCCCCCCCCCC(=O)N1CCCC1C(=O)NCC(=O)NC(Cc1ccccc1)C(=O)NC(C)C(=O)NC(CO)C(=O)NC(Cc1ccc(O)cc1)C(=O)NC(CCCCN)C(=O)NC(CC(C)C)C(=O)NC(CCCN=C(N)N)C(=O)N1CCCC1C(=O)NCC(N)=O` (stereo not given) (Palmitoyl-PGFASYKLRPG-NH2; configuration not given here), the GI50 in [1] is 15.8 µM; in [2], 18 µM; in [3], 21.9 µM; in [4] it was 20.2 µM; in [5] it was 16.2 µM; in test [6] it was 27.3 µM. Also, the GI50 was 26.4 µM in test [7], 20.1 µM in test [8], 24.7 µM in [9] and 21.3 µM in test [10]. The TGI in [1] stood at 34.7 µM; in test [2], 47.3 µM; in test [3], 52.1 µM; in test [4], 46.9 µM; in [5], 35 µM; in test [6], 67.1 µM. The TGI turned out to be 52.7 µM in test [7], 52.1 µM in test [8], 53.5 µM in [9] and 40.8 µM in [10].

`O[C@@]12Cc3c([nH]c4ccccc34)[C@@H]3Oc4cccc5c4[C@@]31CCN(CC1CC1)[C@@H]2C5`: the TGI was found to be 25.6 µM in [1]; 33.9 µM in test [2]; 32.9 µM in test [3]; 38 µM in test [4]; 51.2 µM in [5]; 42 µM in test [7]. Further, the values for the TGI in [8] and in [10] were 47.6 µM and 43.5 µM, respectively.

Consider `CCOC(=O)c1c(C)n(-c2ccc(Cl)cc2)c2c1cc(O)c1[nH]c3c(c12)CCCC3`, for which the TGI in [1] is more than 100 µM; in test [2], more than 100 µM; in test [3] it was more than 100 µM; in test [4] it was 60.4 µM; in test [5] it was more than 100 µM; in test [6], more than 100 µM. Also, the TGI in test [7], in test [8], in [9] and in [10] was more than 100 µM in each case.

Regarding `CN1C(c2ccccc2)CC(=O)C(N)C1c1ccccc1` (stereo not given), the TGI was 78.9 µM in test [1]; 50 µM in test [2]; more than 96.3 µM in test [3]; 33.7 µM in test [4]; more than 100 µM in [6]; more than 87.1 µM in test [7]. Moreover, the TGI was more than 80.4 µM in test [8], more than 31.6 µM in [9] and more than 100 µM in [10].

Consider `Nc1nc(O)c2ncn([C@H]3CC[C@@H](CO)O3)c2n1`, for which the TGI in test [1], in test [2], in test [3], in [5], in [6] and in test [7] was more than 100 µM each time. Moreover, in test [9], the TGI is more than 100 µM.

As for `Cc1ccc(-c2nc(N/N=C/C=C/c3ccccc3)c3ccccc3n2)cc1`, the TGI in [1], in test [2], in test [3], in test [4], in test [5] and in [6] was more than 100 µM throughout. Further, the TGI in test [7] is more than 100 µM; in test [8], 51.8 µM; in test [9], 99.6 µM; in test [10] it was more than 100 µM.

With `Cc1c(-c2ccccc2)[nH]c2cc(Cl)ccc2c1=O`, the TGI in test [2] was more than 100 µM; in test [7] it was more than 100 µM; in test [8], more than 100 µM; in test [9] it was 79.5 µM; in [10], more than 100 µM.

`CCN1CCC(O)(/C=C/c2ccccc2C)C(C(=O)/C=C/c2ccccc2C)C1` (stereo not given): the TGI was found to be 3.38 µM in test [1]; 16.3 µM in [2]; 3 µM in test [3]; 12.7 µM in [5]; 6.68 µM in [6]; 9.31 µM in test [7]. Further, the TGI in [8] was determined as 16.8 µM; in [9], 3.67 µM; in test [10], 12.8 µM.

Regarding `c1cnc2c(c1)ccc1cccnc12`, the TGI is more than 100 µM in [1]; more than 35.3 µM in test [2]; more than 49.5 µM in test [3]; more than 100 µM in test [4]; more than 74.7 µM in test [5]; more than 100 µM in test [6]. In addition, the TGI was more than 31.5 µM in test [7], more than 78.6 µM in [8], more than 100 µM in test [9] and more than 100 µM in test [10].

For the compound `CC1=C(O)C2=C(C(=O)C1=O)[C@@H](C)CC[C@@H]2[C@@H](C)C/C=C/C(C)(C)O`, the TGI in test [3] was more than 100 µM; in test [4], 58.8 µM; in [5] it was more than 100 µM; in [6], more than 100 µM; in test [7], more than 100 µM; in test [10], more than 100 µM.

In the case of `Nc1[nH]c(=O)nc2c1cnn2C1CCCCO1` (stereo not given), the TGI in test [1], in test [2], in [3], in [6], in test [7] and in [8] was more than 100 µM in each case. In addition, the TGI in test [9] and in [10] was more than 100 µM in each case.

In the case of `C=C(C)C1Cc2c(c3ccccc3n(C)c2=O)O1` (stereo not given), the TGI in [1], in test [2], in [3], in test [4], in [6] and in test [8] was more than 100 µM throughout.

As for `c1ccc(-c2nc(N3CCNCC3)c3oc(-c4ccccc4)nc3n2)cc1`, the GI50 in test [1] was 1.46 µM; in test [2], 1.7 µM; in test [3], 1.49 µM; in test [4], 1.99 µM; in test [6], 1.75 µM; in test [9], 1.54 µM. For the same compound, the TGI in test [1] came to 3.06 µM; in test [2], 3.17 µM; in test [3], 2.85 µM; in test [4], 4.51 µM; in [6], 3.22 µM; in [9], 3.07 µM.
